Test results reported in patent publication US11957646B2, “Methods and compositions of stable phenylephrine formulations” (Paragon BioTeck, Inc., priority 2013, dated 2024).

Assays:
[1] = tested on: vasopressor effect of (−)-epinephrine, (−)-norepinephrine, and tetraethylammonium; conditions: anesthetized rats, infusion of large amount; cited from earlier work
[2] = Chiral purity by chiral HPLC before and after 6 months storage at 2 to 8° C.; assay type: physicochemical; conditions: 10% solution
Method: Column-OJ-RH (150×4.6) mm, Flow: 0.6 ml min-1, Mobile Phase: 0.05% Ethylenediamine in Methanol, Column Temp: 25° C.; Detection wavelength: 270 nm. 4.0 mg sample in 1 mL ethanol was analyzed. The injection volume to HPLC is 3.0 μL.
R-Phenylephrine Hydrochloride Opthalmic Solution, 2.5% and 10% prepared as in Example 1 were stored at 2 to 8° C. The chiral purity of Sample 1 (10% solution) was assessed before low temperature stability test.
The chiral purity of R-Phenylephrine Hydrochloride was determined by the method and conditions as shown in Example 3.

[3] = tested on: rabbit pupil; experiment: Dilation assay of R and S form phenylephrine solutions on rabbits; assay type: in vivo, NZW rabbits; conditions: 10% solution, 3 drops, versus untreated eye
Method: Two ophthalmic formulations, formulated 10% Phenylephrine hydrochloride (S-isomer) and the exemplary invention composition, 10% Phenylephrine hydrochloride (R-isomer) were tested for their ocular activity in NZW rabbits.
Both R and S form solutions (10% solution prepared as in Example 1) were test for dilation on rabbits. The first test rabbit received 3 drops of the S form formulation and the second test rabbit received 3 drops of the R form solution.

Structure (SMILES) | tachyphylaxis to vasopressor effect [1] | further results
CNCC(O)c1ccc(O)c(O)c1 (single isomer, unassigned; (+)) [(+)-epinephrine] | induces tachyphylaxis | –
NCC(O)c1ccc(O)c(O)c1 (single isomer, unassigned; (+)) [(+)-norepinephrine] | induces tachyphylaxis | –
CNC[C@H](O)c1cccc(O)c1 [(−)-phenylephrine] | induces tachyphylaxis | –
CNC[C@H](O)c1cccc(O)c1.Cl [R-Phenylephrine Hydrochloride, (R)-3-hydroxy-α-[(methylamino)methyl]benzenemethanol hydrochloride] | – | chiral purity before storage ([2]; before low temperature stability test): 99.3 % ee; chiral purity after 6 months storage ([2]; stored at 2 to 8° C. for 6 months): 99.3 % ee
CNC[C@@H](O)c1cccc(O)c1 [S-Phenylephrine] | induces tachyphylaxis | pupil dilation [3]: dilated the eye only slightly more than that was untreated
CNCCc1ccc(O)c(O)c1 [epinine] | induces tachyphylaxis | –
